Source: patent US10150758B2, “PRMT5 inhibitors and uses thereof” (Epizyme, Inc., priority 2012, dated 2018)

The molecules below were run on symmetric di-methyl arginine in Z-138 cells (assay: Z-138 Methylation Assay (In Cell Western for symmetric di-methyl arginine and DNA content)). Conditions: Homo sapiens, 96 hours incubation, read-out: ICW EC50.
Assay type: cell-based
Text: [formula] [formula] Where top and bottom are the normally allowed to float, but may be fixed at 100 or 0 respectively in a 3-parameter fit. The Hill Coefficient normally allowed to float but may also be fixed at 1 in a 3-parameter fit. Y is the % inhibition and X is the compound concentration. Z-138 Methylation Assay
Z-138 suspension cells were purchased from ATCC (American Type Culture Collection, Manassas, Va.). RPMI/Glutamax medium, penicillin-streptomycin, heat inactivated fetal bovine serum, and D-PBS were purchased from Life Technologies, Grand Island, N.Y., USA. Odyssey blocking buffer, 800CW goat anti-rabbit IgG (H+L) antibody, and Licor Odyssey infrared scanner were purchased from Licor Biosciences, Lincoln, Nebr., USA. Symmetric di-methyl arginine antibody was purchased from EMD Millipore, Billerica, Mass., USA. 16% Paraformaldehyde was purchased from Electron Microscopy Sciences, Hatfield, Pa., USA.
Z-138 suspension cells were maintained in growth medium (RPMI 1640 supplemented with 10% v/v heat inactivated fetal bovine serum and 100 units/mL penicillin-streptomycin) and cultured at 37° C. under 5% CO2.
Cell Treatment, in Cell Western (ICW) for Detection of Symmetric Di-Methyl Arginine and DNA Content.
Z-138 cells were seeded in assay medium at a concentration of 50,000 cells per mL to a 384-well cell culture plate with 50 μL per well. Compound (100 nL) from 384 well source plates was added directly to 384 well cell plate. Plates were incubated at 37° C., 5% CO2 for 96 hours. After four days of incubation, 40 μL of cells from incubated plates were added to poly-D-lysine coated 384 well culture plates (BD Biosciences 356697). Plates were incubated at room temperature for 30 minutes then incubated at 37° C., 5% CO2 for 5 hours. After the incubation, 40 μL per well of 8% paraformaldehyde in PBS (16% paraformaldahyde was diluted to 8% in PBS) was added to each plate and incubated for 30 minutes. Plates were transferred to a Biotek 405 plate washer and washed 5 times with 100 μL per well of wash buffer (1×PBS with 0.1% Triton X-100 (v/v)). Next 30 μL per well of Odyssey blocking buffer were added to each plate and incubated 1 hour at room temperature. Blocking buffer was removed and 20 μL per well of primary antibody was added (symmetric di-methyl arginine diluted 1:100 in Odyssey buffer with 0.1% Tween 20 (v/v)) and plates were incubated overnight (16 hours) at 4° C. Plates were washed 5 times with 100 μL per well of wash buffer. Next 20 μL per well of secondary antibody was added (1:200 800CW goat anti-rabbit IgG (H+L) antibody, 1:1000 DRAQ5 (Biostatus limited) in Odyssey buffer with 0.1% Tween 20 (v/v)) and incubated for 1 hour at room temperature. The plates were washed 5 times with 100 μL per well wash buffer then 1 time with 100 μL per well of water. Plates were allowed to dry at room temperature then imaged on the Licor Odyssey machine which measures integrated intensity at 700 nm and 800 nm wavelengths. Both 700 and 800 channels were scanned.
First, the ratio for each well was determined by:
Each plate included fourteen control wells of DMSO only treatment (minimum inhibition) as well as fourteen control wells for maximum inhibition treated with 3 μM of a reference compound (Background wells). The average of the ratio values for each control type was calculated and used to determine the percent inhibition for each test well in the plate. Reference compound was serially diluted three-fold in DMSO for a total of nine test concentrations, beginning at 3 μM. Percent inhibition was determined and IC50 curves were generated using triplicate wells per concentration of compound.

Row | EC50 [nM] | SMILES
1 | 101 to 1000 | O=C1Cc2ccccc2N1CC(O)CN1CCc2ccccc2C1 (centres unmarked) [Compound 1, 1-(3-(3,4-dihydroisoquinolin-2(1H)-yl)-2-hydroxypropyl)indolin-2-one]
2 | 101 to 1000 | O=C1CN(c2cccc3cccnc23)CCN1CC(O)CN1CCc2ccccc2C1 (centres unmarked) [Compound 4, 1-(3-(3,4-dihydroisoquinolin-2(1H)-yl)-2-hydroxypropyl)-4-(quinolin-8-yl)piperazin-2-one]
3 | 101 to 1000 | O=C1CN(c2cccc(F)c2)CCN1CC(O)CN1CCc2ccccc2C1 (centres unmarked) [Compound 6]
4 | 101 to 1000 | O=C1CN(c2ccc(Cl)cc2)CCN1CC(O)CN1CCc2ccccc2C1 (centres unmarked) [Compound 7, 4-(4-chlorophenyl)-1-(3-(3,4-dihydroisoquinolin-2(1H)-yl)-2-hydroxypropyl)piperazin-2-one]
5 | 101 to 1000 | O=C1CN(c2cncc(N3CCOCC3)c2)CCN1CC(O)CN1CCc2ccccc2C1 (centres unmarked) [Compound 8, 1-(3-(3,4-dihydroisoquinolin-2(1H)-yl)-2-hydroxypropyl)-4-(5-morpholinopyridin-3-yl)piperazin-2-one]
6 | 101 to 1000 | O=C1CN(c2ccccc2Cl)CCN1CC(O)CN1CCc2ccccc2C1 (centres unmarked) [Compound 9]
7 | < 100 | O=C1CN(c2cccc(N3CCOCC3)c2)CCN1CC(O)CN1CCc2ccccc2C1 (centres unmarked) [Compound 12, 1-(3-(3,4-dihydroisoquinolin-2(1H)-yl)-2-hydroxypropyl)-4-(3-morpholinophenyl)piperazin-2-one]
8 | 101 to 1000 | Cc1ccc(N2CCN(CC(O)CN3CCc4ccccc4C3)C(=O)C2)cc1 (centres unmarked) [Compound 15, 1-(3-(3,4-dihydroisoquinolin-2(1H)-yl)-2-hydroxypropyl)-4-(p-tolyl)piperazin-2-one]
9 | 101 to 1000 | O=c1cc(Nc2ccccc2)ccn1C[C@H](O)CN1CCc2ccccc2C1 [Compound 19, (R)-1-(3-(3,4-dihydroisoquinolin-2(1H)-yl)-2-hydroxypropyl)-4-(phenylamino)pyridin-2(1H)-one]
10 | 101 to 1000 | CN(C)c1ccccc1N1CCN(C[C@H](O)CN2CCc3ccccc3C2)C(=O)C1 [Compound 29]
11 | 101 to 1000 | O=C1COc2ccccc2N1CC(O)CN1CCc2ccccc2C1 (centres unmarked) [Compound 31, 4-(3-(3,4-dihydroisoquinolin-2(1H)-yl)-2-hydroxypropyl)-2H-benzo[b][1,4]oxazin-3(4H)-one]
